What is called EC50 is the concentration that produces a half-maximal response. In general, Emax refers to the maximal effect, on the per cent scale that the assay sets.

Read-outs that look alike come from different tables or passages of the source.

The text below walks through data of patent US20170226139A1, “CRYSTALLINE SALTS OF (Z)-O-OCTADEC-9-EN-1-YL O,O-DIHYDROGEN PHOSPHOROTHIOATE” (priority 2013, published 2017).

Assay [1] concerns the target T1, Human LPA1 (Homo sapiens, UniProt Q92633).
T1 construct: expressed in transfected cells; host or cells: mouse embryonic fibroblasts (MEF)
As to the kind of experiment: Calcium-mobilization assay (FURA-2), human LPA1 transfected cells. The conditions noted are these: for EC50: EC50 [nM], mean. Type of assay: cell-based. On the procedure: (§1) We investigated structure-activity relationships across species, LPAR subtypes and between Rx100 and two known process impurities encountered in manufacture: Rx103 (‘E’ isomer) and Rx200 (oleyl phosphate and impurity, which can be an Rx100 degradant along with oleyl alcohol). Rx100, Rx103, Rx200 and native LPA were investigated at different human LPAR subtypes. In addition, the activity of these compounds was evaluated at LPA2 receptors from the rhesus, rat and mouse species. Human LPA1/2/3 subtypes were transfected into mouse embryonic fibroblasts (MEF) or rat hepatoma cells (RH7777)—both of which are normally non-responsive or null to LPA. Human LPA4 was transfected into Chinese hamster ovary (CHO) cells and LPA5 into the B103 neuroblastoma cell line. […] The B103 rat neuroblastoma cell line is endogenously nonresponsive to LPA but expresses heterologous LPA5 receptors well. […] LPAR activation elicits a G-protein-mediated transient rise in intracellular calcium level that is proportional to the concentration of LPA applied. The intracellular calcium level was quantified by the calcium-selective fluorescent indicator FURA-2 (e.g., increased intracellular calcium surge=increased fluorescence).

The target in assay [2] is T2, LPA2 receptors from the mouse (Mus musculus, UniProt Q9JL06).
T2 construct: expressed in transfected cells
T2 sequence (Q9JL06 whole entry): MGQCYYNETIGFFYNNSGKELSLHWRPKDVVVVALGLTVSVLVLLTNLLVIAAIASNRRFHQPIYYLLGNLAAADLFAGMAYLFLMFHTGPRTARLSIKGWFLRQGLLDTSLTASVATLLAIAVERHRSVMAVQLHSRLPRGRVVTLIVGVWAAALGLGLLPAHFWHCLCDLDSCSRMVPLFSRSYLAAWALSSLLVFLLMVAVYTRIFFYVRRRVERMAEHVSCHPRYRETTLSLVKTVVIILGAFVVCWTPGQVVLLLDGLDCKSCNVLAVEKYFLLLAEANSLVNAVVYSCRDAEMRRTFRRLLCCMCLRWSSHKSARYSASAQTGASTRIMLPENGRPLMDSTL
As to the kind of experiment: Calcium-mobilization assay (FURA-2), mouse LPA2. Type of assay: cell-based. On the procedure: as §1

For assay [3], the system named is female murine Animal Model of GI-ARS (TAI). As to the kind of experiment: Survival after total abdominal irradiation (TAI), murine model of GI-ARS (UTHSC, 2010). Type of assay: in vivo. The conditions noted are these: UTHSC 2010 (TAI), 0.1 mg/kg, start +24, 15.0 Gy, non-GLP. On the procedure:
These Animal Model studies were all conducted using partial body irradiation (PBI) with tibial bone marrow sparing except the earliest study which was performed with Total Abdominal Irradiation (TAI). The male Rhesus macaque model was developed by MacVittie. The female inbred murine PBI GI-ARS Animal Model was developed by the inventors. […] Differences in radiation sensitivity by gender in rodent species are well appreciated. We are not aware of PBI GI-ARS models other than these that meet criteria required to conduct a prospective, blinded, controlled, randomized study of efficacy.

T1 sequence (Q92633 whole entry): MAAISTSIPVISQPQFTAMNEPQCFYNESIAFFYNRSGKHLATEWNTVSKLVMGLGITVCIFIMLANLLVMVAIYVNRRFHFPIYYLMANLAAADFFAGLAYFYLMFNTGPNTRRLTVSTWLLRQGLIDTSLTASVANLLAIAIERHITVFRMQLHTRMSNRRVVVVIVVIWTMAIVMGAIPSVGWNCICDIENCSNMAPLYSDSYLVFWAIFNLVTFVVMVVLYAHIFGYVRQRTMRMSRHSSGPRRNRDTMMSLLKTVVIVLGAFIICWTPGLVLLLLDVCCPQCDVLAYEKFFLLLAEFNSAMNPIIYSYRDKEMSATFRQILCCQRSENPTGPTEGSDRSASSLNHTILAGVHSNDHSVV

With `CCCCCCCC/C=C\CCCCCCCCOP(O)(O)=S` [Rx100, (Z)—O-octadec-9-en-1-yl O,O-dihydrogen phosphorothioate], the EC50 in assay [1] (LPA1 DKO MEF, human) was determined as 273 nM; in assay [1] (LPA1 RH7777, human) it was 1030 nM; in assay [2], 167 nM. Moreover, the Emax in assay [1] (RH7777, read-out: Emax (% of LPA)) worked out at 69%; in assay [1] (read-out: Emax (% of LPA)) it was 70%; in assay [2] (read-out: Emax (% of LPA)), 100%. Also, the “Survival, Rx100 arm (survivors/animals)” value in assay [3] (single cell under Day 10/Day ≧30) is 10/14. In addition, the “Survival advantage” value in assay [3] (single cell under Day 10/Day ≧30, vs vehicle) came to 42%.
